Laboratory results: PubChem BioAssay AID1895 (NMMLSC, 2009)
The source made the active and inactive calls. No rule for the calls is given here.

Biological target: MEK5 PB1 domain binding to MEKK2 (MAP3K2) mutant PB1, human
Test: mutant MEKK2 PB1-MEK5 interaction blockers – biochemical, bead multiplex flow cytometry, dose response (AID 1895)
Details: Bead-based multiplex flow cytometry; for Ki: measured here: Ki for PB1 binding

Structure (SMILES)	EC50	Ki
COc1ccc(-c2csc(N(CCCN(C)C)C(=O)c3ccccc3Cl)n2)cc1	> 30 µM (inactive)	
CCc1ccc(Nc2n[n+](-c3ccccc3)c(-c3ccc(OCc4ccccc4)cc3)s2)cc1	> 30 µM (inactive)	
CCOc1cccc2sc(N(CCCN(C)C)C(=O)c3ccc(S(=O)(=O)N4CCc5ccccc5C4)cc3)nc12	12.1 µM	
CN1CCN(CC(=O)N2CCn3c4c(c5cc(C6CCCCC6)ccc53)CCCC42)CC1 (stereo not given)	> 30 µM (inactive)	
O=C(CCCC(=O)N(CC(=O)NC1CCCC1)C1CCCC1)Nc1ccccn1	> 30 µM (inactive)	
CN(C)CCCNc1cc(C(C)(C)C)nc2c(-c3ccc(Cl)cc3)cnn12	> 30 µM (inactive)	
FC(F)(F)c1cccc(NC(=S)N(CCCN2CCCC2)Cc2cccn2Cc2ccc(Cl)cc2)c1	7.06 µM	
CCCCCc1cc(=O)oc2c(C(CCN3CCCC(C)C3)c3ccc(OC)cc3)c(OC)cc(OC)c12 (stereo not given)	12 µM	
C#CCOCCOCCOCCNc1nc(N2CCN(C(=O)[C@H](Cc3cc4ccccc4[nH]3)n3cc([C@@H](N)C(C)CC)nn3)CC2)nc(N2CCN(C(=O)[C@H](Cc3cc4ccccc4[nH]3)n3cc([C@@H](N)Cc4ccc(O)cc4)nn3)CC2)n1 (stereo not given in full)	3.78 µM	
Cc1cc2ccccc2n1CCNC(=O)c1ccccc1	> 30 µM (inactive)	
COc1ccc2nc(C)cc(N/N=C/c3ccc(F)cc3)c2c1	> 30 µM (inactive)	
CCN(CC)CCOC(=O)c1ccc(NC(=O)c2cn(-c3ccccc3)nc2-c2cccs2)cc1	> 30 µM (inactive)	
C#CCOCCOCCOCCNc1nc(N2CCN(C(=O)[C@H](CCCCN)n3cc([C@@H](N)CC(C)C)nn3)CC2)nc(N2CCN(C(=O)[C@H](Cc3cc4ccccc4[nH]3)n3cc([C@@H](N)Cc4ccc(O)cc4)nn3)CC2)n1	11.1 µM	
CCn1cc(C(=O)O)c(=O)c2cc(F)c(N3CCN(C(=S)NC(=O)c4ccc(Br)cc4)CC3)cc21	> 30 µM (inactive)	
CCN(CC)CCOc1ccc2c(c1)C(=NNC(=O)c1ccccn1)c1cc(OCCN(CC)CC)ccc1-2	5.52 µM	
CCN1CCN(Cc2ccc(NC(=O)c3cc(NC(=O)c4cncc(-c5cccs5)c4)cc(OC)c3)cc2C(F)(F)F)CC1	> 30 µM (inactive)	
CCCCCCCCCCOC(=O)Cn1c(COc2ccccc2C)[n+](C)c2ccccc21	1.02 µM	
COc1ccc2nc(C)cc(N/N=C/c3cccc(OC)c3O)c2c1	> 30 µM (inactive)	
CCN(CC)CCOC(=O)c1ccc(N/C=C(/C#N)c2nc(-c3cc4ccccc4oc3=O)cs2)cc1	4.9 µM	4.8 µM
C#CCOCCOCCOCCNc1nc(N2CCN(C(=O)C([C@@H](C)CC)n3cc(C(N)COC(=O)C(F)(F)F)nn3)CC2)nc(N2CCN(C(=O)[C@H](CCCCN)n3cc(C(N)[C@H](C)CC)nn3)CC2)n1 (stereo not given in full)	> 30 µM (inactive)	
CCN(CC)CCOC(=O)c1ccc(N/C=C(/C#N)c2nc(-c3ccc(OC)c(OC)c3)cs2)cc1	> 30 µM (inactive)	
Cc1cc2cc(CNC(=O)NC3CCCCC3)ccc2[nH]1	> 30 µM (inactive)	
CNc1nc(-c2c[nH]c3ccccc23)cs1	> 30 µM (inactive)	
C=CCN1C(=O)/C(=C/c2ccc(-c3ccc(F)cc3)o2)SC1=S	inactive	
C#CCOCCOCCOCCNc1nc(N2CCN(C(=O)[C@H](Cc3ccc(O)cc3)n3cc([C@@H](N)CC(C)C)nn3)CC2)nc(N2CCN(C(=O)[C@H](Cc3cc4ccccc4[nH]3)n3cc([C@@H](N)CC(C)C)nn3)CC2)n1	> 30 µM (inactive)	
COc1ccc(-c2[nH]ncc2CN2CCCCCCC2)c(OC)c1	> 30 µM (inactive)	
S=c1[nH]nc(-c2ccc(Cl)cc2)n1-c1ccc2c(c1)OCCO2	> 30 µM (inactive)	

Structure (SMILES)	EC50	Ki
Cc1sc(NC(=O)c2ccccc2)c(C(c2ccccn2)N2CCN(CCO)CC2)c1C (stereo not given)	> 30 µM (inactive)	
CN(C)CCCN(C(=O)c1ccc2c(c1)CCCC2)c1nc2ccc(Cl)cc2s1	> 30 µM (inactive)	
CCCCCCCCCCOC(=O)Cn1c(COc2cccc(C)c2)[n+](C)c2ccccc21	> 30 µM (inactive)	
COc1cccc(OC)c1-c1nn2c(-c3cc(-c4ccccc4)n[nH]3)nnc2s1	> 30 µM (inactive)	
COCCNC(=O)CN(c1cc(Cl)ccc1OC)S(=O)(=O)c1ccc(C)c([N+](=O)[O-])c1	> 30 µM (inactive)	
CCc1ccc(-c2nn(-c3ccccc3)cc2CSC(=N)N)cc1	5.27 µM	
CCN1/C(=C/c2ccc3cc(C)ccc3[n+]2CC)Sc2cc(C)c(C)cc21	> 30 µM (inactive)	
CCOC(=O)c1c(C)n(-c2ccc(C)cc2)c2ccc(OCC(O)CN3CCN(C)CC3)cc12 (stereo not given)	> 30 µM (inactive)	
NC(=NCCCCCCN=C(N)/N=C(\N)Nc1ccc(Cl)cc1)/N=C(\N)Nc1ccc(Cl)cc1	> 30 µM (inactive)	
CCCCCCCCCC[N+](C)(C)CC/C=C1/c2ccccc2Sc2ccc(Cl)cc21	> 30 µM (inactive)	
N=C(N)SCc1cn(-c2ccccc2)nc1-c1ccc(Br)cc1	8.53 µM	
Cc1ccc(CN2CCSc3ccc(C(=O)NC4CCN(Cc5ccccc5)CC4)cc32)cc1	4.92 µM	
CCCCCc1cc(=O)oc2c(C(CCN3CCCCC3)c3ccc(OC)cc3)c(OC)cc(OC)c12 (stereo not given)	> 30 µM (inactive)	
C#CCOCCOCCOCCNc1nc(N2CCN(C(=O)[C@H](Cc3ccc(O)cc3)n3cc([C@@H](N)CC(C)C)nn3)CC2)nc(N2CCN(C(=O)[C@H](Cc3ccc(O)cc3)n3cc([C@@H](N)CC(C)C)nn3)CC2)n1	25.1 µM	
COc1ccc(Cn2cc3c(-c4ccc(F)cc4)nnc-3c3cc(OC)c(OC)cc32)cc1	> 30 µM (inactive)	
CCCCCc1cc(=O)oc2c(C(CCN3CCCCC3)c3ccc4c(c3)OCO4)c(OC)cc(OC)c12 (stereo not given)	> 30 µM (inactive)	
COc1ccccc1N1CCN(S(=O)(=O)c2ccc(Cl)s2)CC1	> 30 µM (inactive)	
NC(=O)CSc1nnc(Cc2ccc3c(c2)OCO3)o1	> 30 µM (inactive)	
CCCCCCCCCCOC(=O)Cn1c(COc2ccc(OC)cc2)[n+](C)c2ccccc21	> 30 µM (inactive)	
CCN(CC)CCNC(=O)c1ccc(NC(=O)c2cn(-c3ccccc3)nc2-c2cccs2)cc1	5.01 µM	
CC(C)N=c1cc2n(-c3ccc(Cl)cc3)c3ccccc3nc-2cc1Nc1ccc(Cl)cc1	inactive	
COc1ccc(/C=N/Nc2cc(C)nc3ccc(Br)cc23)cc1	8.32 µM	
OCCCCNCc1ccc(OCc2ccc(Cl)cc2Cl)cc1	> 30 µM (inactive)	
Nc1ccc2nc(-c3ccc(-c4nc5ccc(N)cc5[nH]4)cc3)[nH]c2c1	> 30 µM (inactive)	
CC(C)n1cc(CN2CCC(C(=O)Nc3cccc(-c4cccc(Cl)c4)c3)CC2)cn1	> 30 µM (inactive)	
COc1ccc2[nH]c3c(C)c4ccncc4c(C)c3c2c1	> 30 µM (inactive)	
CNC(=O)C(=O)Nc1c(C)cc(C)cc1C	> 30 µM (inactive)	

Structure (SMILES)	EC50	Ki
O=C1c2ccccc2-c2onc3ccc(NCCCn4ccnc4)c1c23	> 30 µM (inactive)	
COc1ccc(C2NCCc3c2[nH]c2ccccc32)cc1CN1CCc2cc(OC)c(OC)cc2C1C (stereo not given)	13.2 µM	
COc1ccc(CSc2n[nH]c(C)n2)cc1[N+](=O)[O-]	> 30 µM (inactive)	
CCN1CCN(Cc2ccc(NC(=O)c3cc(NC(=O)c4cnn(-c5ccccc5)c4N)cc(OC)c3)cc2C(F)(F)F)CC1	> 30 µM (inactive)	
C#CCOCCOCCOCCNc1nc(N2CCN(C(=O)[C@H](Cc3ccc(O)cc3)n3cc([C@@H](N)C(C)CC)nn3)CC2)nc(N2CCN(C(=O)[C@H](Cc3cc4ccccc4[nH]3)n3cc([C@@H](N)Cc4ccc(O)cc4)nn3)CC2)n1 (stereo not given in full)	> 30 µM (inactive)	
CCCSc1ncnc2sc(C)c(C)c12	> 30 µM (inactive)	
CCNc1ccc2noc3c2c1C(=O)c1ccccc1-3	4.43 µM	4.34 µM
CCCOc1ccc2c(c1)C(=NN=C(N)N)c1cc(OCCC)ccc1-2	9.98 µM	
CCN1CCN(Cc2ccc(NC(=O)c3cc(NC(=O)C(=O)c4c[nH]c5ccccc45)cc(OC)c3)cc2C(F)(F)F)CC1	0.5 µM	
CC(=O)Nc1ccc(OCC(O)Cn2c3ccccc3c3ccccc32)cc1 (stereo not given)	> 30 µM (inactive)	
Cc1nn2c(N)csc2nc1=O	inactive	3.34 µM
C#CCOCCOCCOCCNc1nc(N2CCN(C(=O)C(Cc3ccc(O)cc3)n3cc(C(N)CC(C)C)nn3)CC2)nc(N2CCN(C(=O)C(Cc3cc4ccccc4[nH]3)n3cc(C(N)C(C)CC)nn3)CC2)n1 (stereo not given)	> 30 µM (inactive)	
CN(c1ccccc1)c1ccc(/C=c2\s/c(=C(/C#N)C(=O)C(C)(C)C)n(Cc3ccco3)c2=O)cc1	inactive	0.16 µM
CCCCCCCCCCCCCCCC[n+]1cccc2ccccc21	6.89 µM	
O=C(Nc1ccc(C2=NCCN2)cc1)c1ccc(C(=O)Nc2ccc(C3=NCCN3)cc2)c([N+](=O)[O-])c1	> 30 µM (inactive)	
C#CCOCCOCCOCCNc1nc(N2CCN(C(=O)[C@H](Cc3cc4ccccc4[nH]3)n3cc([C@@H](N)C(C)CC)nn3)CC2)nc(N2CCN(C(=O)[C@H](CCCCN)n3cc([C@@H](N)CC(C)C)nn3)CC2)n1 (stereo not given in full)	10.3 µM	
C#CCOCCOCCOCCNc1nc(N2CCN(C(=O)[C@H](Cc3ccc(O)cc3)n3cc([C@@H](N)C(C)CC)nn3)CC2)nc(N2CCN(C(=O)[C@H](Cc3cc4ccccc4[nH]3)n3cc([C@@H](N)CC(C)C)nn3)CC2)n1 (stereo not given in full)	24.9 µM	
COc1ccc(C(CCNCc2ccc(OC(C)C)cc2)c2ccccc2OC)cc1 (stereo not given)	> 30 µM (inactive)	
COc1cc(/C=N/NC(=O)c2cc3ccccc3cc2O)ccc1OCCN1CCCCC1	> 30 µM (inactive)	
CCOC(=O)c1c(-c2ccc(-c3ccccc3)cc2)csc1NC(=O)CNCCN(C)C	1.09 µM	
Cc1cc2ccccc2n1CCNC(=O)c1cccs1	> 30 µM (inactive)	
CCN1C(c2ccccc2)=C(c2ccccc2)S/C1=C\C=C1/SC(=S)N(C)C1=O	3.35 µM	3.28 µM
CC[n+]1c(/C=C/C=C/N(C(C)=O)c2ccccc2)sc2ccccc21	> 30 µM (inactive)	
c1ccc(CNc2nc(NCc3ccccc3)c3ccccc3n2)cc1	> 30 µM (inactive)	
C#CCOCCOCCOCCNc1nc(N2CCN(C(=O)[C@H]([C@@H](C)CC)n3cc([C@@H](N)Cc4ccc(O)cc4)nn3)CC2)nc(N2CCN(C(=O)[C@H](Cc3cc4ccccc4[nH]3)n3cc([C@@H](N)C(C)CC)nn3)CC2)n1 (stereo not given in full)	10.1 µM	
CCN1/C(=C/c2ccc3cc(C)ccc3[n+]2C)Sc2ccc3sccc3c21	> 30 µM (inactive)	
